Several values for one entry are separate records, joined by “and”; a condition that tells them apart may be missing. Identical values can stand only once. Like-named read-outs stand apart in the source and are kept apart here.
Legend:
[1] = tested on: batrachotoxin (BTX) binding site of the sodium channel; test: Affinity to the batrachotoxin (BTX) binding site of the sodium channel; conditions: rat cerebrocortex synaptosomes, test concentration not given
human μ-opioid receptor = human μ-opioid receptor (Homo sapiens, UniProt P35372); test: Affinity to the human μ-opioid receptor ([3H]-naloxone displacement); conditions: for inhibition at 1 µM: read-out: μ (Naloxone), 1 μM, % inhibition; for μ (Naloxone), 1 μM, % inhibition: Table II, [3H]-naloxone
Procedure: The receptor affinity to the human μ-opioid receptor is determined in a homogeneous batch in microtiter plates. For this purpose, dilution series of the substances to be tested are incubated at room temperature for 90 minutes in a total volume of 250 μL with a receptor membrane preparation (15-40 μg of protein/250 μL of incubation batch) of CHO-K1 cells which express the human μ-opioid receptor (RB-HOM receptor membrane preparation supplied by NEN, Zaventem, Belgium) in the presence of 1 nmol/L of the radioactive ligand [^3H]-naloxone (NET 719, supplied by NEN, Zaventem, Belgium), and of 1 mg of WGA-SPA beads (wheat germ agglutinin SPA beads supplied by Amersham/Pharmacia, Freiburg, Germany). As incubation buffer, 50 mmol/L of tris HCl supplemented with 0.05% (weight/volume) of sodium azide and with 0.06% (weight/volume) of bovine serum albumin is used. For determination of the nonspecific binding, 25 μmol/L of naloxone are added. On completion of the ninety-minute incubation time, the microtiter plates are centrifuged for 20 minutes at 1000 g and the radioactivity is measured in a β-counter (Microbeta-Trilux, supplied by PerkinElmer Wallac, Freiburg, Germany).
Based on the percentage displacement produced by different concentrations of the test substances, IC50 inhibitory concentrations are calculated which cause a 50 percent displacement of the radioactive ligand. As a result of recalculation using the Cheng-Prusoff relationship, the Ki values for the test substances can be obtained, as described in the publication of Y. Cheng, W. H. Prusoff, 1973, Biochem. Pharmacol., 22, pages 3099-3108.

male NMRI mice = test: Analgesic test using the phenylquinone-induced writhing test on mice; assay type: in vivo; conditions: 10 mg/kg intravenous
Procedure: The analysis of analgesic activity is carried out using the phenylquinone-induced writhing assay in mice, modified as described in the article by I. C. Hendershot and J. Forsaith ((1959) in J. Pharmacol. Exp. Ther. 125, 237-240).
For the present purpose, male NMRI mice are used having a weight of from 25 to 30 g. Groups of 10 animals per substance dose receive, 10 minutes after an intravenous dose of test substances, an intraperitoneal administration of 0.3 ml/mouse of a 0.02% strength aqueous solution of phenylquinone (phenylbenzoquinone, obtainable from Sigma, Deisenhofen; solution produced with the addition of 5% of ethanol and storage in a water bath at 45° C.). The animals are placed individually in observation cages. Using a pushbutton counter, the number of pain-induced stretching movements (so-called writhing reactions=straightening of the body accompanied by stretching of the rear extremities) was counted over a period of from 5 to 20 minutes following the administration of phenylquinone. The control is provided by animals receiving only physiological saline. All substances are tested using the standard dosage of 10 mg/kg.

5-HT transporter = target: T1, 5-HT transporter (Rattus norvegicus, UniProt P31652); test: Inhibition of 5-HT uptake in rat brain synaptosomes; assay type: biochemical; conditions: rat, 1 μM; for inhibition at 1 µM: read-out: Uptake 5-HT, % inhibition
T1 construct: synaptosomes of rat brain areas are freshly isolated; from tissue; host or cells: rat brain synaptosomes (P2 fraction) from marrow and pons

NA transporter = test: Inhibition of noradrenaline uptake in rat brain synaptosomes; assay type: biochemical; conditions: Table III

T1 sequence (P31652 whole entry): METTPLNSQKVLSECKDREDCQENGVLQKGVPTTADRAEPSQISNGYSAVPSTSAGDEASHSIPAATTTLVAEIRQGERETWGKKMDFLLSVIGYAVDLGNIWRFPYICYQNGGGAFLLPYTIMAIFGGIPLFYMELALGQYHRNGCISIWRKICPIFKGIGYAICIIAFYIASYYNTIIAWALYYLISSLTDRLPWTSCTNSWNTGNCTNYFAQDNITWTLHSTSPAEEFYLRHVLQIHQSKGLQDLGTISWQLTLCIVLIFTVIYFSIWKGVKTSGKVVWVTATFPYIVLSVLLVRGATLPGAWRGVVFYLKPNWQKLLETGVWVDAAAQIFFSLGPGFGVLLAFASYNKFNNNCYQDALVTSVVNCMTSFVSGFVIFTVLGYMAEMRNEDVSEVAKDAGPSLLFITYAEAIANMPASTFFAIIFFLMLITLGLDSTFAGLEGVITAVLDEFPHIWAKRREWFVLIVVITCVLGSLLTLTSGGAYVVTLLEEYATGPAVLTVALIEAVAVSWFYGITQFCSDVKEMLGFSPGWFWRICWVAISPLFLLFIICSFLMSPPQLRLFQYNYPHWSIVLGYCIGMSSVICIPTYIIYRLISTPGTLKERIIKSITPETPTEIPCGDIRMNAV
Chain of human μ-opioid receptor (P35372 whole entry): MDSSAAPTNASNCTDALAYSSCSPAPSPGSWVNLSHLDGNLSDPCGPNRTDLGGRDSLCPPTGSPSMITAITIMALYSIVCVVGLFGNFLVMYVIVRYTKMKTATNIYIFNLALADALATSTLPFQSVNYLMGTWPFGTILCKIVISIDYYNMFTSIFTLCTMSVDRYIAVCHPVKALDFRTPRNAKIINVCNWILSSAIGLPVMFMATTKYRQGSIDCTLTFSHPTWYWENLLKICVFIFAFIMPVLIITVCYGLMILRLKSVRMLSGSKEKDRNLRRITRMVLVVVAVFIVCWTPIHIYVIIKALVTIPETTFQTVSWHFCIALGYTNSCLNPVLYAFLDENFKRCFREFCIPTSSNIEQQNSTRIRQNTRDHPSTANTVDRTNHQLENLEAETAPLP

SMILES	BTX inhibition ([1]; Table II)	% Inhibition of the writhing reaction (Dosage in mg/kg intravenous) (male NMRI mice)	BTX inhibition ([1]; Table III)	Uptake (NA), rat, 10 μM, % inhibition (NA transporter)	inhibition at 1 µM (5-HT transporter; Table III)	further results
CCC(CC)C(=O)N1CCC2(CC1)N[C@@H](Cc1ccccc1)C(=O)N2Cc1ccccc1.Cl [Example 25, 1,3-(S)-dibenzyl-8-(2-ethylbutyryl)-1,4,8-triazaspiro[4,5]decan-2-one hydrochloride]	47	42 (10) %				inhibition at 1 µM (human μ-opioid receptor): 66%; inhibition at 1 µM (5-HT transporter; Table II): 66%
Cl.O=C(c1ccc(Cl)cc1)N1CCC2(CC1)N[C@@H](Cc1ccccc1)C(=O)N2Cc1ccccc1 (racemic) [Example 29, 1,3-(S,R)-dibenzyl-8-(4-chlorobenzoyl)-1,4,8-triazaspiro[4,5]decan-2-one hydrochloride]						BTX inhibition ([1]; Table II, hydrochloride): 65 and 60; μ (Naloxone), 1 μM, % inhibition (human μ-opioid receptor): 38%; Uptake 5-HT, rat, 1 μM, % inhibition (5-HT transporter; Table II, hydrochloride): 80% and 45%
Cl.O=C(c1ccc(C(F)(F)F)c(F)c1)N1CCC2(CC1)N[C@@H](Cc1ccccc1)C(=O)N2Cc1ccccc1 [Example 53, 1,3-(S)-dibenzyl-8-(3-fluoro-4-trifluoromethylbenzoyl)-1,4,8-triazaspiro[4,5]decan-2-one hydrochloride]	48	30 (10) %				
Cl.O=C(COc1ccc(Cl)cc1)N1CCC2(CC1)N[C@@H](Cc1ccccc1)C(=O)N2Cc1ccccc1 [Example 55, 1,3-(S)-dibenzyl-8-[2-(4-chlorophenoxy)acetyl]-1,4,8-triazaspiro[4,5]decan-2-one hydrochloride]	64	45 (10) %				
Cl.O=C1NC2(CCN(C(=O)c3ccc(Cl)cc3)CC2)N[C@H]1Cc1ccccc1 (racemic) [Example 10, 3-(S,R)-Benzyl-8-(4-chlorobenzoyl)-1,4,8-triazaspiro[4,5]decan-2-one hydrochloride]	53					μ (Naloxone), 1 μM, % inhibition (human μ-opioid receptor): 94%
C#CCN1C(=O)C(CC(C)C)NC12CCN(C(=O)COc1ccc(Cl)cc1)CC2 (centres unmarked) [Example 104, 8-[2-(4-Chlorophenoxy)acetyl]-3-isobutyl-1-prop-2-ynyl-1,4,8-triazaspiro[4,5]decan-2-one]			41	36%	48%	
COc1ccccc1C(=O)N1CCC2(CC1)NC(Cc1ccccc1)C(=O)N2Cc1ccccc1F (centres unmarked) [Example 274, 3-Benzyl-1-(2-fluorobenzyl)-8-(2-methoxybenzoyl)-1,4,8-triazaspiro[4,5]decan-2-one]			85	64%	97%	
Cl.O=C(COc1ccccc1)N1CCC2(CC1)N[C@@H](Cc1ccccc1)C(=O)N2Cc1ccccc1 [Example 57, 1,3-(S)-dibenzyl-8-(2-phenoxyacetyl)-1,4,8-triazaspiro[4,5]decan-2-one hydrochloride]	44					inhibition at 1 µM (human μ-opioid receptor): 60%; inhibition at 1 µM (5-HT transporter; Table II): 72%
C=CCCC(=O)N1CCC2(CC1)NCC(=O)N2Cc1ccccc1F [Example 287, 1-(2-Fluorobenzyl)-8-pent-4-enoyl-1,4,8-triazaspiro[4,5]decan-2-one]			32	41%	41%	
CCC(CC)C(=O)N1CCC2(CC1)N[C@@H](Cc1ccccc1)C(=O)N2Cc1ccc(F)cc1.Cl (racemic) [Example 31, 3-(S,R)-benzyl-8-(2-ethylbutyryl)-1-(4-fluorobenzyl)-1,4,8-triazaspiro[4,5]decan-2-one hydrochloride]	61	36 (10) %				Uptake 5-HT, rat, 1 μM, % inhibition (5-HT transporter; Table II): 34%
CCC(CC)C(=O)N1CCC2(CC1)NC(=O)[C@H](Cc1ccccc1)N2.Cl [Example 2, 3-(S)-Benzyl-8-(2-ethylbutyryl)-1,4,8-triazaspiro[4,5]decan-2-one hydrochloride]		51 (10) %				
O=C(c1ccc2nonc2c1)N1CCC2(CC1)NCC(=O)N2Cc1ccccc1F [Example 304, 8-(Benzo[1,2,5]oxadiazole-5-carbonyl)-1-(2-fluorobenzyl)-1,4,8-triazaspiro[4,5]decan-2-one]			33	37%	34%	
CCOc1ccccc1C(=O)N1CCC2(CC1)NCC(=O)N2Cc1ccccc1F [Example 280, 8-(2-Ethoxybenzoyl)-1-(2-fluorobenzyl)-1,4,8-triazaspiro[4,5]decan-2-one]			30	35%	60%	
CCOC(=O)CN1C(=O)C(Cc2ccccc2)NC12CCN(C(=O)c1ccc(NC(C)=O)cc1)CC2 (centres unmarked) [Example 256, Ethyl [8-(4-acetylaminobenzoyl)-3-benzyl-2-oxo-1,4,8-triazaspiro[4,5]dec-1-yl]acetate]			48	57%	94%	
